Like-named read-outs stand apart in the source and are kept apart here.
Assays:
HIV-1 viral strain NL4-3 = test: Anti-viral assay in vitro (MTT, infected MT-4 cells, six days); assay type: cell-based; conditions: Human immunodeficiency virus 1, NL43, MT4, 144 h, read-out: ANTI-HIV-EC50 VIRAL STRAIN NL4-3
Procedure: Anti-Viral and Cytotoxicity Assays In Vitro
• To evaluate the EC50 of our compounds, various drug concentrations are incubated with the infected cell for six days and then the metabolic activity of the cells is monitored by the MTT assay. (See A. J. Japour et al., Antimicrobial Agents and Chemotherapy, 37, 1095-1101, 1993 and R. Pauwels et al. Journal of Virological Methods, 20, 309-321, 1988) • We use the laboratory viral strain NL4.3 as wild type virus and the cell line used is MT-4 which is a T-cell line highly sensitive to HIV-1. We also use some WT clinical strains. To address the resistance issue we assay the inhibitors with NL4.3 mutants which are designed to be resistant to specific commercially available inhibitors. • The same MTT assay is used to evaluate the CCIC50 (cell culture of IC50) of our compounds except that the virus is omitted.

HIV-1 Protease = HIV-1 Protease (Human immunodeficiency virus type 1 group M subtype B (isolate HXB2) (HIV-1), UniProt P04585); test: Enzymatic (FRET fluorometric) assay for determining the inhibition constant (Ki) of compounds targeting the HIV protease; assay type: biochemical; conditions: for IC50: read-out: IC50 ENZYME HIV-1 Protease
Text: Enzymatic Assay for Determining the Inhibition Constant (Ki) of Synthetic Compounds Targeting the HIV Protease
This is a fluorometric assay based on the cleavage by protease of a substrate carrying a donor group (EDANS) and an acceptor group (DABCYL) on each side of the cleavage site, interacting together through fluorescence resonance energy transfer (FRET) as described by Matayoshi et al. (Science 247:[…], 1990).
After calculation of Vo and Vi, the inhibition constant (Ki) of the compound is determined using the equation of Henderson:
where Vo=the enzyme's initial velocity
Vi=the enzyme velocity in the presence of the inhibitory compound,
[I]=inhibitor concentration, [S]=substrate concentration,
Km=Michaelis-Menten constant and Kiapp=apparent Ki
Graphs are traced and the Ki determined using GraphPad Prism software v. 3.0.

[1] = calculated Ki, read-out: KI-CALC ENZYME HIV-1 Protease
[2] = KIGRAPHIC ENZYME HIV-1 Protease, Ki determined graphically, read-out: […] ENZYME HIV-1 Protease

Structure (SMILES)	EC50 (HIV-1 viral strain NL4-3) [nM]	Ki (HIV-1 Protease; [1]) [nM]	IC50 (HIV-1 Protease) [nM]	Ki (HIV-1 Protease; [2]) [nM]
Cc1ccc(C(=O)N[C@@H](Cc2ccccc2C)C(=O)NCCCC[C@@H](CO)N(CC(C)C)S(=O)(=O)c2ccc(N)cc2)cc1O [EX 63]	165	< 3.8	0.938	
COC(=O)N[C@@H](Cc1ccccc1F)C(=O)NCCCC[C@H](CO)N(CC(C)C)S(=O)(=O)c1ccc2c(c1)CCO2 [EX 13]	2140	9.2		
CC(C)CN([C@H](CO)CCCCNC(=O)[C@H](Cc1ccccc1Br)NC(=O)c1cccc(O)n1)S(=O)(=O)c1ccc(N)cc1 [EX 19]	99		0.29	0.27
CC(C)CN([C@H](CO)CCCCNC(=O)C(Cc1ccccc1Br)NC(=O)c1ccncc1)S(=O)(=O)c1ccc(N)cc1 (some centres unmarked) [EX. 42]	40	< 3.8	0.618	0.182
CC(C)CN([C@H](CO)CCCCNC(=O)[C@@H](NC(=O)N1CCOCC1)C(c1ccccc1)c1ccccc1)S(=O)(=O)c1ccc2c(c1)CCO2 [EX 34]	1000	< 3.8	0.963	0.821
Cc1c(O)cccc1C(=O)N[C@@H](Cc1ccccc1Br)C(=O)NCCCC[C@@H](CO)N(CC(C)C)S(=O)(=O)c1ccc(N)cc1 [EX 18]	136		0.6	0.26
Cc1ncccc1C(=O)N[C@@H](Cc1ccccc1Br)C(=O)NCCCC[C@@H](CO)N(CC(C)C)S(=O)(=O)c1ccc(N)cc1 [EX. 39]	70	< 3.8	0.58	0.183

From patent US8742158B2, “Protease inhibitors” (TaiMed Biologics, Inc., priority 2006, dated 2014)
